Assay results taken from ChEMBL document CHEMBL4312021, “Discovery of [1,2,4]-triazolo [1,5-a]pyrimidine-7(4H)-one derivatives as positive modulators of GABAA1 receptor with potent anticonvulsant activity and low toxicity” (Eur J Med Chem, 2020).
Active and inactive are the calls of the source. The calls are words filed in the database; no cut-off is given here.

Tests used:
[1] = system: Mus musculus; assay: Anticonvulsant activity in Kunming mouse assessed as reduction in MES-induced seizure at 30 to 300 mg/kg, ip measured after 30 mins; type: functional, organism-based
[2] = system: Mus musculus; assay: Anticonvulsant activity in Kunming mouse assessed as reduction in ScPTZ-induced seizure at 30 mg/kg, ip administered before 30 mins of ScPTZ stimulation; type: functional, organism-based
[3] = Protective index, ratio of TD50 for neurotoxicity in ip dosed Kunming mouse to ED50 for anticonvulsant activity in ip dosed Kunming mouse; type: toxicity, organism-based; details: in vivo, read-out: Ratio TD50/ED50
[4] = Neurotoxicity in ip dosed Kunming mouse assessed as reduction in equilibrium measured after 30 mins by rotarod test; type: toxicity, organism-based; details: in vivo
[5] = system: Mus musculus; assay: Anticonvulsant activity in Kunming mouse assessed as reduction in ScPTZ-induced seizure at 100 mg/kg, ip administered before 30 mins of ScPTZ stimulation; type: functional, organism-based
[6] = molecular target: T1, GABA-A receptor; alpha-1/beta-2/gamma-2 (Homo sapiens, UniProt P14867+P18507+P47870); assay: (§1) Activation of recombinant human GABA receptor alpha1beta2gamma2 expressed in CHO cells in presence of GABA and measured for 120 secs by FMP dye based FLIPR assay; type: cell-based
T1 sequence (P14867 whole entry): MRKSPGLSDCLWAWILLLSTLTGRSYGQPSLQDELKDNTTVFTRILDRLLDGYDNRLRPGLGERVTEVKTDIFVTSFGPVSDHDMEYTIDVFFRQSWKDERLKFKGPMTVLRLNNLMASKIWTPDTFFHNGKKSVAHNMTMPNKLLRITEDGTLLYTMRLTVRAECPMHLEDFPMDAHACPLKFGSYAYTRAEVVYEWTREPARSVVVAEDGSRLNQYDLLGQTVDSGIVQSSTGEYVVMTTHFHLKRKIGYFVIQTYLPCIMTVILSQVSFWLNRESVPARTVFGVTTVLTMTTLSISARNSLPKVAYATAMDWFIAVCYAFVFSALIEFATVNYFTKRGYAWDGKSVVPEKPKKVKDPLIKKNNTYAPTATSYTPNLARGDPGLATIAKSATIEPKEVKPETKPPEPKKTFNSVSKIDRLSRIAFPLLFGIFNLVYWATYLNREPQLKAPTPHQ
T1 sequence (P47870 whole entry): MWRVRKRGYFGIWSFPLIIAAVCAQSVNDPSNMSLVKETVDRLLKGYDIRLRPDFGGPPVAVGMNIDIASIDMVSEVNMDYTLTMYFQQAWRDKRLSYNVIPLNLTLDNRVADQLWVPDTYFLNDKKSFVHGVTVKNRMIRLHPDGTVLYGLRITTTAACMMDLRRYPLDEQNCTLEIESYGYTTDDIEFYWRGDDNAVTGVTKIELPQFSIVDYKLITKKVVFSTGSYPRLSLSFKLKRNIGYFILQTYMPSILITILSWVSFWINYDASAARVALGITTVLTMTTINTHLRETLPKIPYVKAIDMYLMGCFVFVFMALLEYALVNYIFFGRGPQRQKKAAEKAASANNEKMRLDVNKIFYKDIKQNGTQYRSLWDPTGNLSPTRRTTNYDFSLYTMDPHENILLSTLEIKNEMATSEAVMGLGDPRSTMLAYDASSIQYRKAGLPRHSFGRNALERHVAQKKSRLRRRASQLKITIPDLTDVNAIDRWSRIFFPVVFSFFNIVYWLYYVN
T1 sequence (P18507 whole entry): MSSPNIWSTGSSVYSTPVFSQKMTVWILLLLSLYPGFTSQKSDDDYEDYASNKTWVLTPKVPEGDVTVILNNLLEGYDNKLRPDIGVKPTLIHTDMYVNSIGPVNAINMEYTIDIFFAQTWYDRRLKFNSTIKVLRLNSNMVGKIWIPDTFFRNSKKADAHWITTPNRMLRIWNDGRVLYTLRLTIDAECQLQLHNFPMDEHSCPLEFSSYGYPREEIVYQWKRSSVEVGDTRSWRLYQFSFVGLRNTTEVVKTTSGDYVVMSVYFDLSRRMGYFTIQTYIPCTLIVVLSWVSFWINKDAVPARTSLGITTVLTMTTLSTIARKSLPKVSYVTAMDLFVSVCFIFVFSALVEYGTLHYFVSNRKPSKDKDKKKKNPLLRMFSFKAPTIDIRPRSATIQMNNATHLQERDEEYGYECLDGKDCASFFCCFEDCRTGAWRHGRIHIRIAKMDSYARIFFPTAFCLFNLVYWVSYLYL

[7] = molecular target: T2, GABA-A receptor; alpha-1/beta-2/gamma-2 (Homo sapiens) (UniProt P14867+P47870+P18507); assay: as §1; type: cell-based
[8] = species on record: Mus musculus; assay: Inhibition of sodium channel in C57BL/6 mouse Primary cortical neurons at 100 uM by manual patch clamp electrophysiology method
[9] = molecular target: T1, GABA-A receptor; alpha-1/beta-2/gamma-2; assay: Positive allosteric modulation of recombinant human GABA receptor alpha1beta2gamma2 expressed in CHO cells at 30 uM in presence of GABA and measured for 120 secs by FMP dye based FLIPR assay (reference value: 0.25 +/- 0.03 uM); type: cell-based
[10] = system: Mus musculus; assay: Anticonvulsant activity in ip dosed Kunming mouse assessed as reduction in ScPTZ-induced seizure administered before 30 mins of ScPTZ stimulation; type: functional; details: 0.5 h
[11] = system: Cortical neurone; assay: Antiepileptic actvity in C57BL/6 mouse Primary cortical neuron assessed as reduction in 4-AP-induced excitability measured for 8 mins by Fluo-8/AM staining based FLIPR assay; type: functional, cell-based; details: C57BL/6, Cortical neurone
[12] = system: Mus musculus; assay: Anticonvulsant activity in Kunming mouse assessed as reduction in ScPTZ-induced seizure at 300 mg/kg, ip administered before 30 mins of ScPTZ stimulation; type: functional, organism-based
[13] = species on record: Mus musculus; assay: Inhibition of sodium channel in C57BL/6 mouse primary cortical neurons at 10 uM by manual patch clamp electrophysiology method
[14] = molecular target: T2, GABA-A receptor; alpha-1/beta-2/gamma-2 (Homo sapiens); assay: Activation of recombinant human GABA receptor alpha1beta2gamma2 expressed in CHO cells and measured for 120 secs by FMP dye based FLIPR assay; type: cell-based

| EC50 [6] [nM] | Activity [7] | inhibition [8] | EC50 [9] [nM] | IC50 [11] [nM] | inhibition [13] | Activity [14] | SMILES | Activity [1] | Activity [2] | selectivity ratio [3] | TD50 at 0.5 h [4] [mg/kg] | Activity [5] | ED50 [10] [mg/kg] | Activity [12] |
| --- | --- | --- | --- | --- | --- | --- | --- | --- | --- | --- | --- | --- | --- | --- |
| 12000 | Dose-dependent effect | Active | 240 | 334 | inactive | inactive | Cc1ccc(-c2nc3[nH]c(Cc4ccccc4)cc(=O)n3n2)cc1 | inactive | Active | 9.09 | 372 | Active | 41 | Active |
| 3080 | Dose-dependent effect | inactive | 200 | 452 | inactive | inactive | O=c1cc(Cc2ccc(Cl)cc2)[nH]c2nc(-c3ccccc3)nn12 | inactive | Active | 17.2 | 548 | Active | 31.8 | Active |
